From patent US7763602B2, “Pyrrole derivatives as antimycobacterial compounds” (priority 2002, dated 2010)
Converted amounts (≈) assume the structure as drawn. Where two headings read alike, the source gives them in different places.

Assays:
[1] = test system: M. tuberculosis (Resistant strain); type: in vivo, mice; conditions: Table V; for Mean Log10 No. of CFU Lung / Mean Log10 No. of CFU Spleen: 5 day/week for 4 week, treated 01 day post-infection; for Mean Log10 No. of reduction Lung / Mean Log10 No. of reduction Spleen: difference from early controls
[2] = test system: M. tuberculosis clinical isolates, resistant; assay: microbe, parasite or virus in culture; type: cell-based, Mycobacterium tuberculosis; conditions: for MIC: Mycobacterium tuberculosis; for MIC (μg/ml) against Clinical isolates Resistant: Table I, agar dilution
[3] = read-out: MIC (μg/ml) against Clinical isolates Resistant

SMILES: Cc1c(CN2CCN(c3cccc(C(F)(F)F)c3)CC2)cc(-c2ccc(Cl)cc2)n1-c1ccc(Cl)cc1 [Compound No. 3, 1-{[1,5-bis(4-chlorophenyl)-2-methylpyrrol-3-yl]methyl}-4-(3-trifluoromethylphenyl)piperazine]
- Mean Log10 No. of CFU Lung ([1]; 12.5 mg/kg): 2.98 ± 0.5
- Mean Log10 No. of CFU Spleen ([1]; 12.5 mg/kg): 2.91 ± 0.4
- Mean Log10 No. of reduction Lung ([1]; 12.5 mg/kg): 1.49
- Mean Log10 No. of reduction Spleen ([1]; 12.5 mg/kg): 1.72
- Mean Log10 No. of CFU Lung ([1]; 25 mg/kg): 2.3 ± 0.17
- Mean Log10 No. of CFU Spleen ([1]; 25 mg/kg): 2.2 ± 0.31
- Mean Log10 No. of reduction Lung ([1]; 25 mg/kg): 2.17
- Mean Log10 No. of reduction Spleen ([1]; 25 mg/kg): 2.43
- Mean Log10 No. of CFU Lung ([1]; 50 mg/kg): 1.99 ± 0.3
- Mean Log10 No. of CFU Spleen ([1]; 50 mg/kg): 1.97 ± 0.4
- Mean Log10 No. of reduction Lung ([1]; 50 mg/kg): 2.48
- Mean Log10 No. of reduction Spleen ([1]; 50 mg/kg): 2.66
- MIC ([2]; read-out: MIC (μg/ml) M. tuberculosis Resistant (n = 26)): 0.25 to 0.5 µg/mL (≈ 0.459 to 0.918 µM)
- MIC [2, 3]: 0.25 to 0.5 µg/mL (≈ 0.459 to 0.918 µM)

SMILES: NNC(=O)c1ccncc1 [Isoniazid, reference compound]
- Mean Log10 No. of CFU Lung ([1]; 12.5 mg/kg): 5.8 ± 0.4
- Mean Log10 No. of CFU Spleen ([1]; 12.5 mg/kg): 5.79 ± 0.4
- Mean Log10 No. of reduction Lung ([1]; 12.5 mg/kg): −1.33
- Mean Log10 No. of reduction Spleen ([1]; 12.5 mg/kg): −1.16
- Mean Log10 No. of CFU Lung ([1]; 25 mg/kg): 5.12 ± 0.6
- Mean Log10 No. of CFU Spleen ([1]; 25 mg/kg): 5.43 ± 0.5
- Mean Log10 No. of reduction Lung ([1]; 25 mg/kg): −0.65
- Mean Log10 No. of reduction Spleen ([1]; 25 mg/kg): −0.8
- Mean Log10 No. of CFU Lung ([1]; 50 mg/kg): 4.43 ± 0.5
- Mean Log10 No. of CFU Spleen ([1]; 50 mg/kg): 4.7 ± 0.31
- Mean Log10 No. of reduction Lung ([1]; 50 mg/kg): 0.04
- Mean Log10 No. of reduction Spleen ([1]; 50 mg/kg): −0.07

SMILES: Cc1c(CN2CCN(c3cccc(C(F)(F)F)c3)CC2)cc(-c2ccc(Cl)cc2)n1-c1ccc(F)cc1F [compound 46, 1-{[1-(2,4-difluorophenyl)-5-(4-chlorophenyl)-2-methylpyrrol-3-yl]methyl}-4-(3-trifluoromethylphenyl)piperazine]
- MIC [2, 3]: 4 to 16 µg/mL (≈ 7.33 to 29.3 µM)

SMILES: Cc1c(CN2CCN(c3ccccn3)CC2)cc(-c2ccc(Cl)cc2)n1-c1ccc(F)cc1F [compound 47, 1-{[1-(2,4-difluorophenyl)-5-(4-chlorophenyl)-2-methylpyrrol-3-yl]methyl}-4-(2-pyridyl)piperazine]
- MIC [2, 3]: 1 to 4 µg/mL (≈ 2.09 to 8.35 µM)

SMILES: Cc1c(CN2CCN(C(c3ccccc3)c3ccccc3)CC2)cc(-c2ccc(Cl)cc2)n1-c1ccc(F)cc1F [compound 48, 1-{[1-(2,4-difluorophenyl)-5-(4-chlorophenyl)-2-methylpyrrol-3-yl]methyl}-4-(4-diphenylmethyl)piperazine]
- MIC (μg/ml) against Clinical isolates Resistant [2]: >16.0 µg/mL

SMILES: Cc1c(CN2CCN(Cc3ccc4c(c3)OCO4)CC2)cc(-c2ccc(Cl)cc2)n1-c1ccc(F)cc1F [compound 50, 5-[(4-{[1-(2,4-difluorophenyl)-5-(4-chlorophenyl)-2-methylpyrrol-3-yl]-methyl}-piperazinyl)methyl]-2H-benzo[d]1,3-dioxolane]
- MIC (μg/ml) against Clinical isolates Resistant [2]: 4.0 to 16.0 µg/mL

SMILES: Cc1c(CN2CCN(c3ccc(F)cc3)CC2)cc(-c2ccccc2)n1-c1ccc(F)cc1F [compound 51, 1-{[1-(2,4-difluorophenyl)-2-methyl-5-phenylpyrrol-3-yl]methyl}-4-(4-fluorophenyl)piperazine]
- MIC [2, 3]: > 16 µg/mL

SMILES: COc1ccccc1N1CCN(Cc2cc(-c3ccccc3)n(-c3ccc(F)cc3F)c2C)CC1 [compound 52, 1-{[1-(2,4-difluorophenyl)-2-methyl-5-phenylpyrrol-3-yl]methyl}-4-(2-methoxyphenyl)piperazine]
- MIC [2, 3]: 8 to 16 µg/mL (≈ 16.9 to 33.8 µM)

SMILES: Cc1c(CN2CCN(c3cccc(C(F)(F)F)c3)CC2)cc(-c2ccccc2)n1-c1ccc(F)cc1F [compound 53, 1-{[1-(2,4-difluorophenyl)-2-methyl-5-phenylpyrrol-3-yl]methyl}-4-(3-trifluoromethylphenyl)piperazine]
- MIC [2, 3]: > 16 µg/mL

SMILES: Cc1c(CN2CCN(c3ccccn3)CC2)cc(-c2ccccc2)n1-c1ccc(F)cc1F [compound 54, 1-{[1-(2,4-difluorophenyl)-2-methyl-5-phenylpyrrol-3-yl]methyl}-4-(2-pyridyl) piperazine]
- MIC [2, 3]: 4 µg/mL (≈ 9 µM)

SMILES: Cc1cc(CN2CCN(c3ccc(F)cc3)CC2)c(-c2ccccc2)n1-c1ccc(F)cc1F [compound 55, 1-{[1-(2,4-difluorophenyl)-5-methyl-2-phenylpyrrol-3-yl]methyl}-4-(4-fluorophenyl) piperazine]
- MIC [2, 3]: > 16 µg/mL

SMILES: COc1ccccc1N1CCN(Cc2cc(C)n(-c3ccc(F)cc3F)c2-c2ccccc2)CC1 [compound 56, 1-{[1-(2,4-difluorophenyl)-5-methyl-2-phenylpyrrol-3-yl]methyl}-4-(2-methoxyphenyl) piperazine]
- MIC [2, 3]: 8 to 16 µg/mL (≈ 16.9 to 33.8 µM)

SMILES: Cc1cc(CN2CCN(c3cccc(C(F)(F)F)c3)CC2)c(-c2ccccc2)n1-c1ccc(F)cc1F [compound 57, 1-{[1-(2,4-difluorophenyl)-5-methyl-2-phenylpyrrol-3-yl]methyl}-4-(3-trifluoromethylphenyl)piperazine]
- MIC [2, 3]: > 16 µg/mL

SMILES: Cc1cc(CN2CCN(c3ccccn3)CC2)c(-c2ccccc2)n1-c1ccc(F)cc1F [compound 58, 1-{[1-(2,4-difluorophenyl)-5-methyl-2-phenylpyrrol-3-yl]methyl}-4-(2-pyridyl) piperazine]
- MIC [2, 3]: 8 to 16 µg/mL (≈ 18 to 36 µM)

SMILES: COc1ccccc1N1CCN(Cc2cc(-c3ccc(Cl)cc3)n(-c3cccc4ccccc34)c2C)CC1 [compound 59, 1-{[5-(4-chlorophenyl)-2-methyl-1-naphthylpyrrol-3-yl]methyl}-4-(2-methoxyphenyl)piperazine]
- MIC (μg/ml) against Clinical isolates Resistant [2]: >16.0 µg/mL

SMILES: Cc1c(CN2CCN(c3cccc(C(F)(F)F)c3)CC2)cc(-c2ccc(Cl)cc2)n1-c1cccc2ccccc12 [compound 60, 1-{[5-(4-chlorophenyl)-2-methyl-1-naphthylpyrrol-3-yl]methyl}-4-(3-trifluoromethylphenyl)piperazine]
- MIC (μg/ml) against Clinical isolates Resistant [2]: 4.0 to 16.0 µg/mL

SMILES: Cc1c(CN2CCN(c3ccccn3)CC2)cc(-c2ccc(Cl)cc2)n1-c1cccc2ccccc12 [compound 61, 1-{[5-(4-chlorophenyl)-2-methyl-1-naphthylpyrrol-3-yl]methyl}-4-(2-pyridyl) piperazine]
- MIC (μg/ml) against Clinical isolates Resistant [2]: 4.0 to 8.0 µg/mL

SMILES: Cc1c(CN2CCN(Cc3ccc4c(c3)OCO4)CC2)cc(-c2ccc(Cl)cc2)n1-c1cccc2ccccc12 [compound 62, 5-[(4-{[5-(4-chlorophenyl)-2-methyl-1-naphthylpyrrol-3-yl]methyl}-piperazinyl)methyl]-2H-benzo[d]1,3-dioxolane]
- MIC (μg/ml) against Clinical isolates Resistant [2]: >16.0 µg/mL

SMILES: COc1ccccc1N1CCN(Cc2cc(C)n(-c3cccc4ccccc34)c2-c2ccc(Cl)cc2)CC1 [compound 63, 1-{[2-(4-chlorophenyl)-5-methyl-1-naphthylpyrrol-3-yl]methyl}-4-(2-methoxyphenyl)piperazine]
- MIC (μg/ml) against Clinical isolates Resistant [2]: 4.0 to 16.0 µg/mL

SMILES: Cc1cc(CN2CCN(c3cccc(C(F)(F)F)c3)CC2)c(-c2ccc(Cl)cc2)n1-c1cccc2ccccc12 [compound 64, 1-{[2-(4-chlorophenyl)-5-methyl-1-naphthylpyrrol-3-yl]methyl}-4-(3-trifluoromethylphenyl)piperazine]
- MIC (μg/ml) against Clinical isolates Resistant [2]: >16.0 µg/mL

SMILES: Cc1c(CN2CCS(=O)(=O)CC2)cc(-c2ccccc2)n1-c1ccccc1 [compound 88]
- MIC (μg/ml) against Clinical isolates Resistant [2]: 2.0 to 8.0 µg/mL

SMILES: Cc1c(CN2CCSCC2)cc(-c2ccc(Cl)cc2)n1NC(=O)c1ccncc1 [compound 89, N-[5-(4-chlorophenyl)-2-methyl-3-(1,4-thiazaperhydroin-4-ylmethyl)pyrrolyl]-4-pyridylcarboxamide]
- MIC (μg/ml) against Clinical isolates Resistant [2]: 4.0 to 8.0 µg/mL

SMILES: CCC(CO)n1c(C)c(CN2CCSCC2)c(CO)c1-c1ccccc1 (centres unmarked) [compound 90, 2-[3-(hydroxymethyl)-5-methyl-2-phenyl-4-(1,4-thiazaperhydroin-4-ylmethyl)-pyrrolyl]butan-1-ol]
- MIC (μg/ml) against Clinical isolates Resistant [2]: >16.0 µg/mL
